Reference: patent US20240360102A1, “PYRIMIDINE-4,6-DIAMINE DERIVATIVE, A PREPARATION METHOD THEREFOR, AND A PHARMACEUTICAL APPLICATION THEREOF” (Abbisko Therapeutics Co., Ltd., priority 2021, published 2024)

Experiments:
Ba/F3 EGFR-Del19-C797S = Ba/F3 EGFR-Del19-C797S (Homo sapiens, UniProt P00533, C797S, cells depend on it, form not given); assay: Cell proliferation study (CellTiter-Glo), Ba/F3 EGFR-Del19-C797S; assay type: cell-based; conditions: 72 hrs, CTG, read-out: Del19/C797S IC50
Method: (§1) • DMEM medium (Gibco, 11965118) • RPMI1640 medium (Gibco, 11875119) • Fetal bovine serum (FBS) (GBICO, Cat #10099-141) • CellTiter-Glo® luminescent cell viability assay kit (Promega, Cat #G7572) • Black transparent flat-bottom 96-well plate (Corning®, Cat #3603)
(§2) • SpectraMax multi-label microplate reader MD, 2104-0010A; • Carbon dioxide incubator, Thermo Scientific 3100 series; • Biological safety cabinet, Thermo Scientific, 1300 series model A2; • Inverted microscope, Olympus, CKX41SF; • Siemens refrigerator, KK25E76TI.
(§3) • (1) Cells in the logarithmic growth phase were harvested and counted using a […]. The cell viability was determined by the trypan blue dye exclusion method to ensure cell viability above 90%. • (2) The cell concentration was adjusted to reach a desired final density; 90 μL of cell suspension was added to a 96-well plate. • (3) The cells were incubated overnight in the 96-well plate at 37° C., 5% CO2 and with 95% humidity.
(§4) • (1) 10 μL of PBS was added to each well of the TO plate containing the cells, • (2) The CTG reagent was thawed and the cell plate was equilibrated to room temperature for 30 min. • (3) An equal volume of CTG solution was added to each well. • (4) The cells were lysed by shaking on an orbital shaker for 5 min. • (5) The cell plate was left to stand at room temperature for 20 min to stabilize the fluorescence signal. • (6) The fluorescence signal values of TO were read.
(§5) • (1) According to the compound information table, a corresponding volume of DMSO was added to the corresponding compound powder to prepare a 10 mM stock solution. • (2) A 1000-fold, 3.16-fold-diluted compound solution was prepared. • (3) The 1000× diluted compound solution was diluted 100-fold with PBS to prepare a 10-fold compound solution with a maximum concentration of 10 μM, including 9 concentrations, with 3.16-fold dilution, and 10 μL of the medicament solution was added to each well of the 96-well plate to seed the cells. Triplicate wells were set for each compound concentration, with a final concentration of DMSO being 0.1%. • (4) The cells were placed in the 96-well plate containing the medicament at 37° C., 5% CO2 and with 95% humidity, and cultured for 72 hrs before CTG analysis,
(§6) • (1) The CTG reagent was thawed and the cell plate was equilibrated to room temperature for 30 min. • (2) An equal volume of CTG solution was added to each well. • (3) The cells were lysed by shaking on an orbital shaker for 5 min. • (4) The cell plate was left to stand at room temperature for 20 min to stabilize the fluorescence signal. • (5) The fluorescence values were read.
(§7) Data were analyzed using GraphPad Prism 7.0 software and fitted data were regressed using non-linear S-curves to obtain dose-response curves from which IC50 values (in nM) were calculated.

Ba/F3 EGFR-L858R-C797S = Ba/F3 EGFR-L858R-C797S (Homo sapiens, UniProt P00533, C797S/L858R, cells depend on it); assay: Cell proliferation study (CellTiter-Glo), Ba/F3 EGFR-L858R-C797S; assay type: cell-based; conditions: 72 hrs, CTG, read-out: L858R/C797S IC50
Chain of Ba/F3 EGFR-L858R-C797S (P00533 whole entry C797S/L858R): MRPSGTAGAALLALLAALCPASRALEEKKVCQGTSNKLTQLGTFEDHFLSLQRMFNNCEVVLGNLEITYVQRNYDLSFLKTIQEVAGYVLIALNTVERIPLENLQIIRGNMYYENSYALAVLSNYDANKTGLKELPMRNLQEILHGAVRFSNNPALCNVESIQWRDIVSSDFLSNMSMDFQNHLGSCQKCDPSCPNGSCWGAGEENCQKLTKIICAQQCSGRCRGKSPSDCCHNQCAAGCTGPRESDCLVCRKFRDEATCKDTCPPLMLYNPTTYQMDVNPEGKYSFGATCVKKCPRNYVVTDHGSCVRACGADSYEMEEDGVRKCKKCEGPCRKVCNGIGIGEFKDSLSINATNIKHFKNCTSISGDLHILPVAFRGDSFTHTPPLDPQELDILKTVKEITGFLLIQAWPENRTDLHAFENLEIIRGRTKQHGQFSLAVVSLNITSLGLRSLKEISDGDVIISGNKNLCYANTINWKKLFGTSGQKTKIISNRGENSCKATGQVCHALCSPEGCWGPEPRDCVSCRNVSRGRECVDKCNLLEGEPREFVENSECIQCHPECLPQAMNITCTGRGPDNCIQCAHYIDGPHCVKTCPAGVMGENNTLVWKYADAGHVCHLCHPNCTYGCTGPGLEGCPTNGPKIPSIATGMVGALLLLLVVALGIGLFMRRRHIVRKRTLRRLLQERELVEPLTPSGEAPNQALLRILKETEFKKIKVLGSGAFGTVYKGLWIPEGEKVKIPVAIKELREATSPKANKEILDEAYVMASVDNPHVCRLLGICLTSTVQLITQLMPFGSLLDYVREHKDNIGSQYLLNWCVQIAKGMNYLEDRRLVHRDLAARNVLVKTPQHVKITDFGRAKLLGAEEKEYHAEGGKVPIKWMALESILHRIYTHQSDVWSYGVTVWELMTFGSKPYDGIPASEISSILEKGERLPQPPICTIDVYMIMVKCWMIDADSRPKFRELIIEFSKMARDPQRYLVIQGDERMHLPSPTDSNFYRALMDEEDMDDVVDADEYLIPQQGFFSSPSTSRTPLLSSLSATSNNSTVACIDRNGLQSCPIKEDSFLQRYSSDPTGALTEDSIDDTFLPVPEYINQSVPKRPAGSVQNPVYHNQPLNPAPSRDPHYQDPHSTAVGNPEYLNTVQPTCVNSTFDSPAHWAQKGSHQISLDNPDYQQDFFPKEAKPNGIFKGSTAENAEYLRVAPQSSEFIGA
Method: as §1, §2, §3, §4, §5, §6, §7

A431 = assay: Cell proliferation study (CellTiter-Glo), A431 WT; assay type: cell-based; conditions: Homo sapiens, A-431; A431 cells, 72 hrs, CTG
Method: as §1, §2, §3, §4, §5, §6, §7

Ba/F3 EGFR-Del19 = Ba/F3 EGFR-Del19 (Homo sapiens, UniProt P00533, cells depend on it, form not given); assay: Cell proliferation study (CellTiter-Glo), Ba/F3 EGFR-Del19; assay type: cell-based; conditions: 72 hrs, CTG, read-out: Del19 IC50
Chain of Ba/F3 EGFR-Del19 (P00533 with tags, fused parts or gaps DEL746-750): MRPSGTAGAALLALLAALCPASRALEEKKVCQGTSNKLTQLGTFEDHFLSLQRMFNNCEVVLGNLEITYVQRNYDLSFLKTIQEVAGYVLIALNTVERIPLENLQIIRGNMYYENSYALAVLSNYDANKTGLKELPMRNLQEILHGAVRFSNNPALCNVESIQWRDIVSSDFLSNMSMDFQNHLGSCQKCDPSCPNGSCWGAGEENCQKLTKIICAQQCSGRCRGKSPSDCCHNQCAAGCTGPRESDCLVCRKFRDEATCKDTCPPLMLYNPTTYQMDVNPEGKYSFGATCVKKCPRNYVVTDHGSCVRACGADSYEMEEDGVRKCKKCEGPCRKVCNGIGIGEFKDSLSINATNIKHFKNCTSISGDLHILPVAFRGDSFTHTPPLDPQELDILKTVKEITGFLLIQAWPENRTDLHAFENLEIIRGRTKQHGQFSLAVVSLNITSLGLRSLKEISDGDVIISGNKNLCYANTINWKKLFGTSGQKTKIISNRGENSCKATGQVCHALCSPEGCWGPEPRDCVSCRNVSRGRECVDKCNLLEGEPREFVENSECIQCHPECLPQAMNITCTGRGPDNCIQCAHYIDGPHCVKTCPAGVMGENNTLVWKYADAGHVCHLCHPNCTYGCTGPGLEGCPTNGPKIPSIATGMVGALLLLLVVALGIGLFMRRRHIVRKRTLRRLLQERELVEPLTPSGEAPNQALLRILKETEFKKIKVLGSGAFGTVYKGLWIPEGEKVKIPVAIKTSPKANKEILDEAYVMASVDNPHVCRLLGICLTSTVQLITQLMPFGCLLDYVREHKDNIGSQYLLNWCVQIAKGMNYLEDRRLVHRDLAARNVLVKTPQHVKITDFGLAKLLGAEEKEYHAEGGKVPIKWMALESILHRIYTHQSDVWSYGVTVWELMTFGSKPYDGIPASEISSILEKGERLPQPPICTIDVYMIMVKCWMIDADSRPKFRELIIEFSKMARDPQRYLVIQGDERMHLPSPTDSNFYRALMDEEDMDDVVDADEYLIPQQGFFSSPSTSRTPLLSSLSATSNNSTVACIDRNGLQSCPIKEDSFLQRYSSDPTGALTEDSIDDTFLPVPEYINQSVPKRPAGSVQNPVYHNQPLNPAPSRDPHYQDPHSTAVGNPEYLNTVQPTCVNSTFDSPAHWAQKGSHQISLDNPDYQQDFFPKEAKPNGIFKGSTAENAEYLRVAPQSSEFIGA
Method: as §1, §2, §3, §4
as §5, with “Triplicate wells were set for each compound concentration, with a final concentration of DMSO being 0.1%. • (4) The cells were placed in the 96-well plate containing the medicament at 37° C., 5% CO2 and with 95% humidity, and cultured for 72 hrs before CTG analysis,” left out
as §6, §7

Ba/F3 EGFR-L858R = Ba/F3 EGFR-L858R (Homo sapiens, UniProt P00533, L858R, cells depend on it); assay: Cell proliferation study (CellTiter-Glo), Ba/F3 EGFR-L858R; assay type: cell-based; conditions: 72 hrs, CTG, read-out: L858R IC50
Chain of Ba/F3 EGFR-L858R (P00533 whole entry L858R): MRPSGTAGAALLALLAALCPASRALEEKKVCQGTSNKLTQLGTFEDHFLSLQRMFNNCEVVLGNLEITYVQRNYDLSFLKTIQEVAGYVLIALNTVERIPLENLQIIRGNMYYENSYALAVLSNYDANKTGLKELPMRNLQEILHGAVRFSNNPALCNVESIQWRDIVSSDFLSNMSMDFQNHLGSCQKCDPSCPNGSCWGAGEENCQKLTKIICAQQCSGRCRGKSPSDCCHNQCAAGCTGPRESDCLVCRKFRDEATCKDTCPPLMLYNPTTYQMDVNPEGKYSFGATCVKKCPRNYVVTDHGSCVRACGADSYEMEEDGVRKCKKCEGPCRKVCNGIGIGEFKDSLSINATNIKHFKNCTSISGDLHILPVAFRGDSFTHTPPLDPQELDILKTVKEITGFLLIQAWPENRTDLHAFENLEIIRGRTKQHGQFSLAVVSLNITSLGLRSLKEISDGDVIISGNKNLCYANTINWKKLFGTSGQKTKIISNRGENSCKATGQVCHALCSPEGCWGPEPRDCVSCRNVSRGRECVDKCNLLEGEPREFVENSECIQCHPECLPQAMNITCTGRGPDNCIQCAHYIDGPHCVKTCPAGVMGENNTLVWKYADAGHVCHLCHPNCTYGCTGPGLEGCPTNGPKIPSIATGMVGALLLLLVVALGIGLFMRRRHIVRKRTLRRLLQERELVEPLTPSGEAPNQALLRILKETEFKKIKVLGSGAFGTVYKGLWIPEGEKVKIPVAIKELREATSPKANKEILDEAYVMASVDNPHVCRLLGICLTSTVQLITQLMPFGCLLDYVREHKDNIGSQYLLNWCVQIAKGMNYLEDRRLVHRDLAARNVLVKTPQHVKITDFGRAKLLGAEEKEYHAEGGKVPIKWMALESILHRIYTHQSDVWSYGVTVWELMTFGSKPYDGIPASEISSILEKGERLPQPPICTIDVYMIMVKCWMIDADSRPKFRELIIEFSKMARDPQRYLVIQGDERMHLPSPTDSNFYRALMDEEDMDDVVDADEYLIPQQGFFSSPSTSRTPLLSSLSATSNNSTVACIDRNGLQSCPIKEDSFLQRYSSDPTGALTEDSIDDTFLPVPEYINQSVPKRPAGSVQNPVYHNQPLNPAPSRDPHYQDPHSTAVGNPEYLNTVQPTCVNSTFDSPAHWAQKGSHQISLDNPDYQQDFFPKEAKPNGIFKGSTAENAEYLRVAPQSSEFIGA
Method: as §1, §2, §3, §4
as §5, with “Triplicate wells were set for each compound concentration, with a final concentration of DMSO being 0.1%. • (4) The cells were placed in the 96-well plate containing the medicament at 37° C., 5% CO2 and with 95% humidity, and cultured for 72 hrs before CTG analysis,” left out
as §6, §7

[1] = test system: EGFR-Mutated Advanced Non-Small-Cell Lung Cancer; conditions: patients, untreated EGFR-mutated advanced NSCLC; cited from earlier work

Chain of Ba/F3 EGFR-Del19-C797S (P00533 with tags, fused parts or gaps DEL746-750/C797S, form open): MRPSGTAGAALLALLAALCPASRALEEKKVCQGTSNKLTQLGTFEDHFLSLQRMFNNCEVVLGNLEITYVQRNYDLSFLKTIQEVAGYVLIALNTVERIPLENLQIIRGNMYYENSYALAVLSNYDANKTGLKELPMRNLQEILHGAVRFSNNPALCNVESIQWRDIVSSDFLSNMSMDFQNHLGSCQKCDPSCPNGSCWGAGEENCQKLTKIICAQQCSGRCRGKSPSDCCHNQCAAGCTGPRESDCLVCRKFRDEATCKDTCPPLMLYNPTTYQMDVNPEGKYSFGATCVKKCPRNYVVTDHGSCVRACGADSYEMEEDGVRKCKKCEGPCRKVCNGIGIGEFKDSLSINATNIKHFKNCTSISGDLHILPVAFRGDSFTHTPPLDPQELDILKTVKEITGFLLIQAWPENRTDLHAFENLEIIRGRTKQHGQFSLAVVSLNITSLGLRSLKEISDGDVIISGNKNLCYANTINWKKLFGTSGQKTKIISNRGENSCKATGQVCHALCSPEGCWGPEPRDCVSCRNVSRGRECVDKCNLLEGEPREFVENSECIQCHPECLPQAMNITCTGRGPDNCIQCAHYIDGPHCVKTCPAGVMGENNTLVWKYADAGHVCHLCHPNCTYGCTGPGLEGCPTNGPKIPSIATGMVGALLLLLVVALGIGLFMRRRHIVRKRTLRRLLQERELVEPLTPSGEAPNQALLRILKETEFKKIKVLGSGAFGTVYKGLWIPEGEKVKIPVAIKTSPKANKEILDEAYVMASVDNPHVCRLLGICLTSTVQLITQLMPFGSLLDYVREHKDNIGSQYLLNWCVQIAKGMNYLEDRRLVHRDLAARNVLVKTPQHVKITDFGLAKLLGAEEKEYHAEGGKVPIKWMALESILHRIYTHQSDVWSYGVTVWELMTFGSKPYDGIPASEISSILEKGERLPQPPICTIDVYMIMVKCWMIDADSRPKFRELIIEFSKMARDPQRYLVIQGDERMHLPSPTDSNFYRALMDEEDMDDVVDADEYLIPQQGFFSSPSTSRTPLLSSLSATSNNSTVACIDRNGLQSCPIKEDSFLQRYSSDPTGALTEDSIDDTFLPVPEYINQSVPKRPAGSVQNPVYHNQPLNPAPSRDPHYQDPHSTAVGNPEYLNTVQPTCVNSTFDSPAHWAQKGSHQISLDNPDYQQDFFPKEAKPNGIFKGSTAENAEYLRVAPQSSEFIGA

| SMILES | GI50 (Ba/F3 EGFR-Del19-C797S) [nM] | GI50 (Ba/F3 EGFR-L858R-C797S) [nM] | IC50 (A431) [nM] | GI50 (Ba/F3 EGFR-Del19) [nM] | GI50 (Ba/F3 EGFR-L858R) [nM] | overall survival [1] [months] | progression-free survival [1] [months] |
| --- | --- | --- | --- | --- | --- | --- | --- |
| COc1cc(N2CCC(N3CCN(C)CC3)CC2)c(C)cc1Nc1cc(Nc2ccnc(-c3ccccc3F)c2)ncn1 [Example 1, N^4-(2-(2-fluorophenyl)pyridin-4-yl)-N^6-(2-methoxy-5-methyl-4-(4-(4-methylpiperazin-1-yl)piperidin-1-yl)phenyl)pyrimidine-4,6-diamine] | 3.7 | 9.1 | 182 | 3.4 | 3 | – | – |
| CCOc1cc(N2CCC(N3CCN(C)CC3)CC2)c(C)cc1Nc1cc(Nc2ccnc(-c3ccccc3F)c2)ncn1 [Example 3, N^4-(2-ethoxy-5-methyl-4-(4-(4-methylpiperazin-1-yl)piperidin-1-yl)phenyl)-N^6-(2-(2-fluorophenyl)pyridin-4-yl)pyrimidine-4,6-diamine] | – | 23.3 | 217 | – | – | – | – |
| Cc1cc(Nc2cc(Nc3ccnc(-c4ccccc4F)c3)ncn2)c(OC(F)F)cc1N1CCC(N2CCN(C)CC2)CC1 [Example 4, N^4-(2-(difluoromethoxy)-5-methyl-4-(4-(4-methylpiperazin-1-yl)piperidin-1-yl)phenyl)-N^6-(2-(2-fluorophenyl)pyridin-4-yl)pyrimidine-4,6-diamine] | 12.7 | 12.1 | 237 | 6.6 | 6.2 | – | – |
| Cc1cc(Nc2cc(Nc3ccnc(-c4ccccc4F)c3)ncn2)c(OCC(F)(F)F)cc1N1CCC(N2CCN(C)CC2)CC1 [Example 5, N^4-(2-(2-fluorophenyl)pyridin-4-yl)-N^6-(5-methyl-4-(4-(4-methylpiperazin-1-yl)piperidin-1-yl)-2-(2,2,2-trifluoroethoxy)phenyl)pyrimidine-4,6-diamine] | – | 53.2 | – | – | – | – | – |
| CCc1cc(Nc2cc(Nc3ccnc(-c4ccccc4F)c3)ncn2)c(OC)cc1N1CCC(N2CCN(C)CC2)CC1 [Example 6, N^4-(5-ethyl-2-methoxy-4-(4-(4-methylpiperazin-1-yl)piperidin-1-yl)phenyl)-N^6-(2-(2-fluorophenyl)pyridin-4-yl)pyrimidine-4,6-diamine] | 23.7 | 32.1 | 1080 | – | – | – | – |
| COc1cc(N2CCC(N3CCN(C)CC3)CC2)c(C(C)C)cc1Nc1cc(Nc2ccnc(-c3ccccc3F)c2)ncn1 [Example 7, N^4-(2-(2-fluorophenyl)pyridin-4-yl)-N^6-(5-isopropyl-2-methoxy-4-(4-(4-methylpiperazin-1-yl)piperidin-1-yl)phenyl)pyrimidine-4,6-diamine] | – | 69.1 | 2500 | – | – | – | – |
| COc1cc(N2CCC(N3CCN(C)CC3)CC2)c(C2CC2)cc1Nc1cc(Nc2ccnc(-c3ccccc3F)c2)ncn1 [Example 8, N^4-(5-cyclopropyl-2-methoxy-4-(4-(4-methylpiperazin-1-yl)piperidin-1-yl)phenyl)-N^6-(2-(2-fluorophenyl)pyridin-4-yl)pyrimidine-4,6-diamine] | 34.6 | 40 | 1660 | – | – | – | – |
| COc1cc(N2CCOCC2)c(-c2cnn(C)c2)cc1Nc1cc(Nc2ccnc(-c3ccccc3F)c2)ncn1 [Example 10, N^4-(2-(2-fluorophenyl)pyridin-4-yl)-N^6-(2-methoxy-5-(1-methyl-1H-pyrazol-4-yl)-4-morpholinophenyl)pyrimidine-4,6-diamine] | – | 117 | – | – | – | – | – |
| COc1cc(N2CCN(C)CC2)c(-c2cnn(C)c2)cc1Nc1cc(Nc2ccnc(-c3ccccc3F)c2)ncn1 [Example 11, N^4-(2-(2-fluorophenyl)pyridin-4-yl)-N^6-(2-methoxy-5-(1-methyl-1H-pyrazol-4-yl)-4-(4-methylpiperazin-1-yl)phenyl)pyrimidine-4,6-diamine] | – | 72.6 | 306 | – | – | – | – |
| COc1cc(N2CCC(N3CCN(C)CC3)CC2)c(Cl)cc1Nc1cc(Nc2ccnc(-c3ccccc3F)c2)ncn1 [Example 14, N^4-(5-chloro-2-methoxy-4-(4-(4-methylpiperazin-1-yl)piperidin-1-yl)phenyl)-N^6-(2-(2-fluorophenyl)pyridin-4-yl)pyrimidine-4,6-diamine] | 21.9 | 21.4 | 228 | – | – | – | – |
| CCN1CCN(C2CCN(c3cc(OC)c(Nc4cc(Nc5ccnc(-c6ccccc6F)c5)ncn4)cc3C)CC2)CC1 [Example 16, N^4-(4-(4-(4-ethylpiperazin-1-yl)piperidin-1-yl)-2-methoxy-5-methylphenyl)-N^6-(2-(2-fluorophenyl)pyridin-4-yl)pyramidine-4,6-diamine] | 12.9 | 11.3 | 177 | 3.1 | 3.9 | – | – |
| Cc1cc(Nc2cc(Nc3ccnc(-c4ccccc4F)c3)ncn2)c(Cl)cc1N1CCC(N2CCN(C)CC2)CC1 [Example 18, N^4-(2-chloro-5-methyl-4-(4-(4-methylpiperazin-1-yl)piperidin-1-yl)phenyl)-N^6-(2-(2-fluorophenyl)pyridin-4-yl)pyrimidine-4-diamine] | 25.1 | 21.7 | 984 | – | – | – | – |
| C=CC(=O)Nc1cc(Nc2nccc(-c3cn(C)c4ccccc34)n2)c(OC)cc1N(C)CCN(C)C [osimertinib] | – | – | – | – | – | 38.6 | 18.9 |

More lines, main results first:

| GI50 (Ba/F3 EGFR-Del19-C797S) [nM] | GI50 (Ba/F3 EGFR-L858R-C797S) [nM] | IC50 (A431) [nM] | GI50 (Ba/F3 EGFR-Del19) [nM] | GI50 (Ba/F3 EGFR-L858R) [nM] | SMILES | overall survival [1] [months] | progression-free survival [1] [months] |
| --- | --- | --- | --- | --- | --- | --- | --- |
| 17.4 | 10.4 | 554 | 2.8 | 2.9 | COc1cc(N2CCC(N3CCOCC3)CC2)c(C)cc1Nc1cc(Nc2ccnc(-c3ccccc3F)c2)ncn1 [Example 2, N^4-(2-(2-fluorophenyl)pyridin-4-yl)-N^6-(2-methoxy-5-methyl-4-(4-morpholinopiperidin-1-yl)phenyl)pyrimidine-4,6-diamine] | – | – |
| – | 68.6 | 1520 | – | – | COc1cc(N2CCC(N3CCN(C)CC3)CC2)c(-c2cnn(C)c2)cc1Nc1cc(Nc2ccnc(-c3ccccc3F)c2)ncn1 [Example 9, N^4-(2-(2-fluorophenyl)pyridin-4-yl)-N^6-(2-methoxy-5-(1-methyl-1H-pyrazol-4-yl)-4-(4-(4-methylpiperazin-1-yl)piperidin-1-yl)phenyl)pyrimidine-4,6-diamine] | – | – |
| – | 77.4 | 2340 | – | – | COc1cc(N2CCC(N3CCN(C)CC3)CC2)c(C)cc1Nc1cc(Nc2cncc(-c3ccccc3F)c2)ncn1 [Example 12, N^4-(5-(2-fluorophenyl)pyridin-3-yl)-N^6-(2-methoxy-5-methyl-4-(4-(4-methylpiperazin-1-yl)piperidin-1-yl)phenyl)pyrimidine-4,6-diamine] | – | – |
| 16.9 | 22.8 | 182 | – | – | COc1cc(N2CCC(N3CCN(C)CC3)CC2)c(F)cc1Nc1cc(Nc2ccnc(-c3ccccc3F)c2)ncn1 [Example 13, N^4-(5-fluoro-2-methoxy-4-(4-(4-methylpiperazin-1-yl)piperidin-1-yl)phenyl)-N^6-(2-(2-fluorophenyl)pyridin-4-yl)pyrimidine-4,6-diamine] | – | – |
| – | 18.3 | 181 | – | – | COc1cc(N2CCC(N3CCN(C)CC3)CC2)c(Br)cc1Nc1cc(Nc2ccnc(-c3ccccc3F)c2)ncn1 [Example 15, N^4-(5-bromo-2-methoxy-4-(4-(4-methylpiperazin-1-yl)piperidin-1-yl)phenyl)-N-(2-(2-fluorophenyl)pyridin-4-yl)pyrimidine-4,6-diamine] | – | – |
| 85 | 87.8 | 1060 | – | – | CN1CCN(C2CCN(c3cc(Cl)c(Nc4cc(Nc5ccnc(-c6ccccc6F)c5)ncn4)cc3Cl)CC2)CC1 [Example 17, N^4-(2,5-dichloro-4-(4-(4-methylpiperazin-1-yl)piperidin-1-yl)phenyl)-N^6-(2-(2-fluorophenyl)pyridin-4-yl)pyrimidine-4,6-diamine] | – | – |
